According to EP1198478B1, “SOMATOSTATIN ANALOGS AND THEIR USE FOR THE TREATMENT OF CANCER” (Dabur Research Foundation, priority 2000, dated 2002):
“And” between values parts separate entries of the source, which are not always exact repeats. Identical values can stand only once.

Legend:
[1] = system: KB (Oral squamous); assay: MTT cytotoxicity assay, KB cells; format: cell-based; conditions: 48 hours
Excerpt: (§1) The cytotoxic effect of peptides SEQ ID NO: 2, SEQ ID NO: 3, SEQ ID NO: 6, and SEQ ID NO: 9, was studied by MTT assay which is based on the principle of uptake of MTT [3-[4,5-dimethylthiazol-2-yl]-2,5-diphenyl tetrazolium bromide], a tetrazolium salt by the metabolically active cells where it is metabolized by active mitochondria into a blue colored formazan product which can be read spectrophotometrically. Briefly, tumor cells PTC (primary human colon cancer cell line), KB (Oral squamous), U87MG (Glioblastoma), HBL100 (Breast), HeP2 (Laryngeal), ECV304 (Endothelial), PA-1 (Ovary) and L132 (Lung) were incubated with the peptide analogs for 48 hours at 37°C in a 96-well culture plate, followed by the addition of 100 µg MTT and further incubation of 1 hour. The formazan crystals formed inside the cells were dissolved with a detergent comprising 10% Sodium dodecyl sulfate and 0.01 N HCl and optical density read on a multiscan ELISA reader. The optical density was directly proportional to the number of proliferating and metabolically active cells.

[2] = system: U87MG (Glioblastoma); assay: MTT cytotoxicity assay, U87MG cells; format: cell-based; conditions: 48 hours
Excerpt: as §1

[3] = system: HBL100 (Breast); assay: MTT cytotoxicity assay, HBL100 cells; format: cell-based; conditions: 48 hours
Excerpt: as §1

[4] = system: HeP2 (Laryngeal); assay: MTT cytotoxicity assay, HeP2 cells; format: cell-based; conditions: 48 hours
Excerpt: as §1

[5] = system: L132 (Lung); assay: MTT cytotoxicity assay, L132 cells; format: cell-based; conditions: 48 hours
Excerpt: as §1

[6] = system: PA-1 (Ovary); assay: MTT cytotoxicity assay, PA-1 cells; format: cell-based; conditions: 48 hours
Excerpt: as §1

[7] = system: ECV304 (Endothelial); assay: MTT cytotoxicity assay, ECV304 cells; format: cell-based; conditions: 48 hours
Excerpt: as §1

[8] = system: PTC (primary human colon cancer cell line); assay: MTT cytotoxicity assay, PTC cells; format: cell-based; conditions: 48 hours
Excerpt: as §1

[9] = system: human colon adenocarcinoma (PTC) xenografts; assay: In vivo antitumor activity on primary tumor (colon) xenografted mice; parameters: species or system Balb/c athymic mice; conditions: for tumor volumes, Avg: average of three animals; for tumor volumes of individual tumor bearing animals: individual animals (IV, V, VI for SEQ ID NO: 2; I, II, III for SEQ ID NO: 3)
Procedure: The antitumor activity of SEQ ID NO:2 and SEQ ID NO:3 was studied in human colon adenocarcinoma (PTC) xenografts in nude mice. PTC tumor xenografts were grown in Balb/c athymic mice by subcutaneous inoculation of a single cell suspension of PTC cells (15 X10^6 cells/ 100µl). The tumor bearing animals were divided into 3 groups of three animals each including one group comprising untreated control animals. Treatment with novel somatostatin analogs was initiated when the average tumor volumes, as measured using a vernier caliper, were between 400-800 mm^3. Solutions of SEQ ID NO:2 and SEQ ID NO:3 were prepared at a concentration of 85 µg/ml and intravenously administered to the assigned group of tumor bearing animals at a dose of 8.5 µg/100 µl twice a day so that the total dose of […] was administered to each animal. The treatment was continued for a period of 10 days.
The antitumor activity of the compounds was monitored by measuring tumor volumes every fourth day using the formula W*W*L*.04 (W = smaller diameter, L = larger diameter). The percentage inhibition of tumor growth was calculated using the formula (1-tumor volume-treated/tumor volume control)* 100.

[10] = day 9, intravenously 8.5 µg/100 µl twice a day, 10 days
[11] = day 13, intravenously 8.5 µg/100 µl twice a day, 10 days
[12] = day 18, intravenously 8.5 µg/100 µl twice a day, 10 days
[13] = day 21, intravenously 8.5 µg/100 µl twice a day, 10 days

With “D-Phe-Cys-Tyr-D-Trp-Orn-Aib-Pen-Thr-NH2 [SEQ ID NO: 9]” the Percentage cytotoxicity ([1]; 1nM) was 28.0 ± 1.6%, the Percentage cytotoxicity ([1]; 10 nM) was 27.0 ± 4.8% and the Percentage cytotoxicity ([1]; 1µM) was 12.0 ± 1.2%. It also gave a Percentage cytotoxicity ([1]; 100n M) of 18.0 ± 5.2%, a Percentage cytotoxicity ([2]; 1nM) of 13.9 ± 2.5% and a Percentage cytotoxicity ([2]; 10 nM) of 29.7 ± 2.4%. The Percentage cytotoxicity ([2]; 1µM) was 42.9 ± 1.2%, the Percentage cytotoxicity ([2]; 100n M) was 53.3 ± 1.4% and the Percentage cytotoxicity ([3]; 1nM) was 26.9 ± 2.6%. The Percentage cytotoxicity ([3]; 10 nM) was 23.9 ± 4.4%, the Percentage cytotoxicity ([3]; 1µM) was 7.9 ± 1.2% and the Percentage cytotoxicity ([3]; 100n M) was 14.9 ± 2.2%. It also gave a Percentage cytotoxicity ([4]; 1nM) of 15.6 ± 3.6%, a Percentage cytotoxicity ([4]; 10 nM) of 21.4 ± 4.4% and a Percentage cytotoxicity ([4]; 1µM) of 19.9 ± 2.4%. The Percentage cytotoxicity ([4]; 100n M) was 27.9 ± 2.5%, the Percentage cytotoxicity ([5]; 1nM) was 14.9 ± 2.6% and the Percentage cytotoxicity ([5]; 10 nM) was 26.1 ± 4.8%. The Percentage cytotoxicity ([5]; 1µM) was 12.9 ± 1.8%, the Percentage cytotoxicity ([5]; 100n M) was 22.8 ± 2.6% and the Percentage cytotoxicity ([6]; 1nM) was 4.6 ± 1.0%. It also gave a Percentage cytotoxicity ([6]; 10 nM) of 12.8 ± 1.4%, a Percentage cytotoxicity ([6]; 1µM) of 16.6 ± 3.1% and a Percentage cytotoxicity ([6]; 100n M) of 22.7 ± 2.2%. The Percentage cytotoxicity ([7]; 1nM) was 18.0 ± 2.9%, the Percentage cytotoxicity ([7]; 10 nM) was 23.9 ± 3.1% and the Percentage cytotoxicity ([7]; 1µM) was 12.9 ± 1.6%. The Percentage cytotoxicity ([7]; 100n M) was 19.9 ± 2.6%.
“D-Phe-Cys-Tyr-D-Trp-Orn-Deg-Pen-Thr-NH2 [SEQ ID NO: 2]” was tested, and the Percentage cytotoxicity ([8]; 1nM) was 40 ± 0.5%, the Percentage cytotoxicity ([8]; 10 nM) was 14 ± 2.9% and the Percentage cytotoxicity ([8]; 1µM) was 9.0 ± 3.2%. For the same substance, the Percentage cytotoxicity ([8]; 100n M) was 20 ± 1.5%, the Percentage cytotoxicity ([1]; 1nM) was 28.0 ± 3.2% and the Percentage cytotoxicity ([1]; 10 nM) was 34.9 ± 4.6%. The Percentage cytotoxicity ([1]; 1µM) was 12.0 ± 4.3%, the Percentage cytotoxicity ([1]; 100n M) was 19.0 ± 5.2% and the Percentage cytotoxicity ([2]; 1nM) was 22.8 ± 3.5%. The Percentage cytotoxicity ([2]; 10 nM) was 41.9 ± 2.4%, the Percentage cytotoxicity ([2]; 1µM) was 33.9 ± 1.2% and the Percentage cytotoxicity ([2]; 100n M) was 39.5 ± 1.4%. For the same substance, the Percentage cytotoxicity ([3]; 1nM) was 19.4 ± 4.5%, the Percentage cytotoxicity ([3]; 10 nM) was 22.8 ± 1.8% and the Percentage cytotoxicity ([3]; 1µM) was 10.6 ± 1.4%. It also gave a Percentage cytotoxicity ([3]; 100n M) of 15.7 ± 3.5%, a Percentage cytotoxicity ([4]; 1nM) of 14.9 ± 3.2% and a Percentage cytotoxicity ([4]; 10 nM) of 29.7 ± 4.4%. It also gave a Percentage cytotoxicity ([4]; 1µM) of 10.0 ± 2.4%, a Percentage cytotoxicity ([4]; 100n M) of 13.0 ± 3.5% and a Percentage cytotoxicity ([5]; 1nM) of 12.7 ± 2.9%. It also gave a Percentage cytotoxicity ([5]; 10 nM) of 23.4 ± 4.2%, a Percentage cytotoxicity ([5]; 1µM) of 17.7 ± 5.5% and a Percentage cytotoxicity ([5]; 100n M) of 22.8 ± 4.6%. For the same substance, the Percentage cytotoxicity ([6]; 1nM) was 29.5 ± 24%, the Percentage cytotoxicity ([6]; 10 nM) was 27.9 ± 3.4% and the Percentage cytotoxicity ([6]; 1µM) was 12.8 ± 3.3%. It also gave a Percentage cytotoxicity ([6]; 100n M) of 22.9 ± 2.3%, a Percentage cytotoxicity ([7]; 1nM) of 22.8 ± 3.9% and a Percentage cytotoxicity ([7]; 10 nM) of 19.8 ± 3.3%. The Percentage cytotoxicity ([7]; 1µM) was 6.0 ± 2.9%, the Percentage cytotoxicity ([7]; 100n M) was 14.9 ± 2.9% and the “tumor volumes, Avg” value ([9]; day 0, before treatment) was 0 mm^3. For the same substance, the “tumor volumes of individual tumor bearing animals” value ([9]; day 0, before treatment) was 0 mm^3, the “tumor volumes, Avg” value [9, 10] was 654 mm^3 and the “tumor volumes of individual tumor bearing animals” value [9, 10] was 480 mm^3 and 678 mm^3 and 806 mm^3. For the same substance, the “tumor volumes, Avg” value [9, 11] was 1927 mm^3, the “tumor volumes of individual tumor bearing animals” value [9, 11] was 1254 mm^3 and 2196 mm^3 and 2333 mm^3 and the “tumor volumes, Avg” value [9, 12] was 3886 mm^3. For the same substance, the “tumor volumes of individual tumor bearing animals” value [9, 12] was 1965 mm^3 and 5240 mm^3 and 4453 mm^3, the “percentage inhibition of tumor growth” value ([9]; day 21, as compared to controls, (1-tumor volume-treated/tumor volume control)* 100, intravenously 8.5 µg/100 µl twice a day, 10 days) was 57.1% and the “tumor volumes, Avg” value [9, 13] was 3860 mm^3. The “tumor volumes of individual tumor bearing animals” value [9, 13] was 491 mm^3 and 4839 mm^3 and 6250 mm^3.
